Laboratory results taken from publication PMC12267067, “Targeting GRPR for sex hormone-dependent cancer after loss of E-cadherin” (Nature, 2025).
No end group written: not given here.

Key:
[1] = tested on: mouse melanoma cell lines (1057, 1064, 1181, 1014); experiment: Cell growth (cell counting), mouse melanoma cell lines; format: cell-based; details: 48 h
Method: (§1) Six-well tissue-culture plates were seeded with 3 × 10^5 melanoma cells in complete medium. After 24 h, the medium was replaced by low-serum medium (0.5% for murine melanoma cell lines and 1% for human melanoma cells) and the cells were incubated for a further 18 h before stimulation with 10 nM GRP (4011670 bachem) and/or 1 µM RC (R9653, Sigma-Aldrich) for 48 h. The plates were trypsinized just after stimulation or 48 h later and the cells were counted. For the MTT assay, 10,000 cells were seeded per well in 96-well plates. After 24 h, cells were starved overnight and then treated with 10 nM GRP and/or 1 µM RC for 48 h in low-serum medium (0.5% FBS). Next, MTT (M5655, Sigma-Aldrich) was added to the wells to a final concentration of 0.5 mg ml^−1 and the plates were incubated for 3 h. The medium was removed and formazan crystals dissolved in 200 µl DMSO. The absorbance was read at 570 nm using a LUMIstar Omega […] (BMG Labtech). All growth experiments were done using three technical replicates and three biological replicates. For the clonogenic assay, six-well tissue-culture plates were seeded with 500 cells in complete medium. After 10 days (20 days for 1181), colonies were fixed with 4% PFA for 15 min and stained with 10% crystal violet in ethanol for 20 min and counted in images using ImageJ software. Experiments were done in triplicate.

[2] = tested on: human melanoma cell lines (MDA-MB-435S, 501mel); experiment: Cell growth (cell counting), human melanoma cell lines; format: cell-based; details: 48 h
Method: as §1

[3] = tested on: human melanoma cell lines (MDA-MB-435S, Dauv-1, 501mel-GRPR); experiment: Matrigel invasion assay, human melanoma cells; format: cell-based; details: 10 nM GRP and/or 1 µM RC-3095, 24 h, 1% FCS
Method: Matrigel invasion assays were done in transwell plates with 8.0-µm pores (353097, Falcon) coated with 100 µl of 200 µg ml^−1 Matrigel. Depending on the experiments, cells were seeded directly or 24 h after transfection in low-serum medium (0.5% FCS for murine cells and 1% for human cell lines) with 10 nM GRP, 1 µM RC-3095, and/or 1 µM IC 182,780, or in 10% FCS. Then, 24 hours after stimulation, inserts were washed with PBS and non-invading cells were removed. Cells in the inserts were fixed in methanol at −20 °C overnight. The inserts were rinsed and the membrane carefully removed using a sharp scalpel. The membrane was mounted in prolong glass DAPI (1.5 µg ml^−1). Assays were performed in triplicate and automatic counting of invading cells was done using an Image/Fiji macro (10.5281/zenodo.14509394). Sequences of siRNAs are given in Supplementary Table 11.

[4] = tested on: serine/threonine kinases in 1057 cells; experiment: Kinase assay (PamGene STK PamChip); format: cell-based, mouse; details: 10 nM GRP, 15 min
Method: Serine/threonine and tyrosine kinase activity were determined using STK PamChips (87102 PamGene International). All assays were done according to the manufacturer’s protocol. In brief, cells were seeded to 70% confluence and starved overnight the day after. Then, the medium was replaced by medium containing vehicle (0.1% DMSO) or 10 nM GRP and/or 1 µM RC and the cells incubated for 15 min. Cells were rinsed twice in PBS and then lysed in M-Per buffer (78503, ThermoFisher Scientific) containing Halt Phosphatase Inhibitor (78428, ThermoFisher Scientific) and Halt Protease Inhibitor (78437, ThermoFisher Scientific), both diluted 1:100. The lysates were immediately snap-frozen. Kinase activity was determined using Pamstation PS12 and 1 µg protein for the STK chips, according to the manufacturer’s protocol. The data were analysed using BioNavigator software (PamGene International), batch corrected using ComBat[71] and normalized using VSN[72]. Kinase activity was assessed using the 2018 version of the UKA tool using basic parameters (Scan rank from 4 to 12, 500 permutations, 90% homology, equivalent weight for each database, minimal prediction score of 300). The UKA tool infers the active kinase from the differentially phosphorylated peptides using databases and predicted interactions (PhosphoNet database).

GRP: GRPR's natural agonist, endogenous ligand of GRPR (4011670 bachem) (VPLPAGGGTVLTKMYPRGNHWAVGHLM; not fully specified; ends and bridges not checked; UniProt P07492 24-50, looked up)
cell growth, GRPR-positive mouse lines ([1]; 1057 and 1064, 10 nM GRP and/or 1 µM RC, low serum 0.5%): promoted growth
cell growth, GRPR-negative mouse cells ([1]; 1181 and 1014, 10 nM GRP, low serum): had no effect
cell growth, GRPR-negative human cells ([2]; 501mel, 10 nM GRP, low serum): had no effect
cell growth, GRPR-positive human line ([2]; MDA-MB-435S, 10 nM GRP and/or 1 µM RC, low serum 1%): promoted growth
invasion (number of invading cells), GRPR-positive human lines [3]: promoted
kinases activated following GRPR activation [4]: primarily triggered protein kinase C (PKC) and, to a lesser extent, PKAα and PRKX
